Measured values published in the NIST ThermoML archive (doi:10.1021/je300873x).

Assay: mn = molality of the nth substance listed, in mol/kg
Details: for surface tension liquid-gas: Pendant drop shape; for electrical conductivity: Liquid, Digital conductivity meter

CCCCCCCCCCCC[N+](C)(CCO)CCO.[Br-] [N,N-bis(2-hydroxyethyl)-N-methyldodecan-1-aminium bromide] + O
Details | electrical conductivity [S/m] | surface tension liquid-gas [mN/m]
298.15 K, m1 = 0.00097 | – | 68.8
298.15 K, m1 = 0.00193 | – | 62.75
298.15 K, m1 = 0.00387 | – | 54.86
298.15 K, m1 = 0.0058 | – | 48.7
298.15 K, m1 = 0.00773 | – | 45.46
298.15 K, m1 = 0.0095 | 0.0822 | –
298.15 K, m1 = 0.00967 | – | 41.58
298.15 K, m1 = 0.00997 | 0.0859 | –
298.15 K, m1 = 0.0105 | 0.0903 | –
298.15 K, m1 = 0.01108 | 0.0948 | –
298.15 K, m1 = 0.0116 | – | 39.54
298.15 K, m1 = 0.01174 | 0.0998 | –
298.15 K, m1 = 0.01247 | 0.1051 | –
298.15 K, m1 = 0.01257 | – | 38.9
298.15 K, m1 = 0.01287 | 0.1075 | –
298.15 K, m1 = 0.0133 | 0.1097 | –
298.15 K, m1 = 0.01376 | 0.1114 | –
298.15 K, m1 = 0.01425 | 0.1126 | –
298.15 K, m1 = 0.0145 | – | 38.74
298.15 K, m1 = 0.01478 | 0.1144 | –
298.15 K, m1 = 0.01535 | 0.1155 | –
298.15 K, m1 = 0.01596 | 0.1171 | –
298.15 K, m1 = 0.01644 | – | 38.53
298.15 K, m1 = 0.01663 | 0.119 | –
298.15 K, m1 = 0.01735 | 0.1209 | –
298.15 K, m1 = 0.01814 | 0.1227 | –
298.15 K, m1 = 0.01901 | 0.1245 | –
298.15 K, m1 = 0.01956 | – | 38.53
298.15 K, m1 = 0.01996 | 0.1268 | –
298.15 K, m1 = 0.0291 | – | 38.45
298.15 K, m1 = 0.04849 | – | 38.36
303.15 K, m1 = 0.00949 | 0.091 | –
303.15 K, m1 = 0.00996 | 0.0952 | –
303.15 K, m1 = 0.01049 | 0.0996 | –
303.15 K, m1 = 0.01107 | 0.1049 | –
303.15 K, m1 = 0.01172 | 0.1117 | –
303.15 K, m1 = 0.01245 | 0.1161 | –
303.15 K, m1 = 0.01285 | 0.1192 | –
303.15 K, m1 = 0.01328 | 0.1216 | –
303.15 K, m1 = 0.01374 | 0.1236 | –
303.15 K, m1 = 0.01423 | 0.1258 | –
303.15 K, m1 = 0.01476 | 0.127 | –
303.15 K, m1 = 0.01533 | 0.1296 | –
303.15 K, m1 = 0.01594 | 0.1313 | –
303.15 K, m1 = 0.01661 | 0.1328 | –
303.15 K, m1 = 0.01733 | 0.1347 | –
303.15 K, m1 = 0.01812 | 0.1365 | –
303.15 K, m1 = 0.01898 | 0.1386 | –
303.15 K, m1 = 0.01993 | 0.141 | –
308.15 K, m1 = 0.00994 | 0.1048 | –
308.15 K, m1 = 0.01047 | 0.1099 | –
308.15 K, m1 = 0.01105 | 0.1157 | –
308.15 K, m1 = 0.0117 | 0.1216 | –
308.15 K, m1 = 0.01243 | 0.1282 | –
308.15 K, m1 = 0.01283 | 0.1315 | –
308.15 K, m1 = 0.01326 | 0.1349 | –
308.15 K, m1 = 0.01372 | 0.1375 | –
308.15 K, m1 = 0.01421 | 0.1402 | –
308.15 K, m1 = 0.01473 | 0.1421 | –
308.15 K, m1 = 0.0153 | 0.1447 | –
308.15 K, m1 = 0.01591 | 0.1463 | –
308.15 K, m1 = 0.01658 | 0.1485 | –
308.15 K, m1 = 0.0173 | 0.151 | –
308.15 K, m1 = 0.01809 | 0.153 | –
308.15 K, m1 = 0.01895 | 0.1563 | –
308.15 K, m1 = 0.0199 | 0.1591 | –
313.15 K, m1 = 0.01045 | 0.1198 | –
313.15 K, m1 = 0.01103 | 0.1258 | –
313.15 K, m1 = 0.01168 | 0.1323 | –
313.15 K, m1 = 0.01241 | 0.14 | –
313.15 K, m1 = 0.01281 | 0.1439 | –
313.15 K, m1 = 0.01324 | 0.1478 | –
313.15 K, m1 = 0.01369 | 0.1515 | –
313.15 K, m1 = 0.01418 | 0.155 | –
313.15 K, m1 = 0.01471 | 0.1577 | –
313.15 K, m1 = 0.01527 | 0.1602 | –
313.15 K, m1 = 0.01589 | 0.1631 | –
313.15 K, m1 = 0.01655 | 0.1654 | –
313.15 K, m1 = 0.01727 | 0.168 | –
313.15 K, m1 = 0.01805 | 0.1707 | –
313.15 K, m1 = 0.01891 | 0.1726 | –
318.15 K, m1 = 0.01043 | 0.1298 | –
318.15 K, m1 = 0.01101 | 0.1366 | –
318.15 K, m1 = 0.01165 | 0.1438 | –
318.15 K, m1 = 0.01238 | 0.1522 | –
318.15 K, m1 = 0.01278 | 0.1567 | –
318.15 K, m1 = 0.01321 | 0.1612 | –
318.15 K, m1 = 0.01367 | 0.166 | –
318.15 K, m1 = 0.01415 | 0.1704 | –
318.15 K, m1 = 0.01468 | 0.1739 | –
318.15 K, m1 = 0.01524 | 0.177 | –
318.15 K, m1 = 0.01585 | 0.1806 | –
318.15 K, m1 = 0.01651 | 0.1838 | –
318.15 K, m1 = 0.01723 | 0.1864 | –
318.15 K, m1 = 0.01802 | 0.1895 | –
318.15 K, m1 = 0.01887 | 0.1932 | –
318.15 K, m1 = 0.01983 | 0.1976 | –
323.15 K, m1 = 0.0104 | 0.1411 | –
323.15 K, m1 = 0.01098 | 0.1472 | –
323.15 K, m1 = 0.01163 | 0.1554 | –
323.15 K, m1 = 0.01236 | 0.1644 | –
323.15 K, m1 = 0.01275 | 0.169 | –
323.15 K, m1 = 0.01318 | 0.1743 | –
323.15 K, m1 = 0.01363 | 0.1794 | –
323.15 K, m1 = 0.01412 | 0.1851 | –
323.15 K, m1 = 0.01465 | 0.1902 | –
323.15 K, m1 = 0.01521 | 0.1949 | –
323.15 K, m1 = 0.01582 | 0.1998 | –
323.15 K, m1 = 0.01648 | 0.2018 | –
323.15 K, m1 = 0.01719 | 0.2068 | –
323.15 K, m1 = 0.01798 | 0.2118 | –
323.15 K, m1 = 0.01883 | 0.2128 | –
323.15 K, m1 = 0.01977 | 0.2199 | –
